# ChEMBL document CHEMBL1201862, “PubChem BioAssay data set” (2004)
# The source made the active and inactive calls. Starred links: 1 amine or outer side, 2 acyl side, 3 side chain; linkers in the order of their positions; H or OH if unused. Positions of bridges follow the written chain, without caps; N, C: chain ends. Non-standard residues stand in square brackets, D forms with d. Residues, ends and D or L forms follow the SMILES beside them. Chains are numbered I, II in the order given. Actinocin(1to9) = Cc1c2oc3c(C)ccc(C(=O)[*:2])c3nc-2c(C(=O)[*:1])c(N)c1=O; aThr = C[C@H](O)[C@H](N)C(=O)O; NMeV = CN[C@H](C(=O)O)C(C)C; Sar = CNCC(=O)O
# Experiments:
# P388/ADR = assay: cells; format: functional; conditions: Mus musculus, P388/ADR
# P388 = assay: cells; format: functional; conditions: Mus musculus, P388
# SN12K1 = assay: cells; format: functional; conditions: Homo sapiens, SN12K1
# [1] = biological target: Luciferin 4-monooxygenase (Photinus pyralis, UniProt P08659); assay: firefly luciferase enzyme inhibitors, dose response, biochemical, luminescence (AID 1891)
# [2] = Luminescence Cell-Based Dose Confirmation HTS to Identify Inhibitors of Platelet Dense Granule Release. [Related pubchem assays: 1663 (Primary HTS), 1678 (Summary of Project)]; format: functional
# [3] = inhibitors of clade B AD8 Env fusion, dose response, cell-based, cherry-pick (AID 652062); format: functional;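 also: luciferase signal from cell-cell fusion driven by HIV-1 clade B AD8 Env; potency is for inhibitors of fusion seen as a drop in luminescence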
# [4] = biological target: T1, Microphthalmia-associated transcription factor (Homo sapiens, UniProt O75030); assay: TRPM1 promoter luciferase signal decrease, dose response, MITF inhibitor project, cell-based, SK-MEL-5, cherry-picked, set 3 (AID 493073); format: functional
# T1 sequence (O75030 whole entry): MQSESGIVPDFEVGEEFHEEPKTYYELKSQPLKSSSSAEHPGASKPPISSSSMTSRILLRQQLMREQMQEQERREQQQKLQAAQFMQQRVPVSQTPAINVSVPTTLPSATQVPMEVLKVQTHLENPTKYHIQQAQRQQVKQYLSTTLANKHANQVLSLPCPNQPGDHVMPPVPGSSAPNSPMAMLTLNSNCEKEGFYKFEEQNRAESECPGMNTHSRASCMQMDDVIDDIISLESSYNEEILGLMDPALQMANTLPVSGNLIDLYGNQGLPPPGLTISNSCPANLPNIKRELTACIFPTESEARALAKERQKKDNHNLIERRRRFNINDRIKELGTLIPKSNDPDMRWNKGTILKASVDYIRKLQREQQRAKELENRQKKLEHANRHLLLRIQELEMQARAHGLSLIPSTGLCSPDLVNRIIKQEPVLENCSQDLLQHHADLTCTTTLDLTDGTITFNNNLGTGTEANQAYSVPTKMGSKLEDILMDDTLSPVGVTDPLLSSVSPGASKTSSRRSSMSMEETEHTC
# Cytochrome P450 3A4 = Cytochrome P450 3A4 (Homo sapiens, UniProt P08684);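 also: CYP3A4 tested as one member of a cytochrome P450 panel screen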
# Cytochrome P450 2D6 = Cytochrome P450 2D6 (Homo sapiens, UniProt P10635);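 also: CYP2D6 member of a cytochrome P450 panel assay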
# [5] = NIH-3T3 fibroblast cytotoxicity, dose response, cytotoxicity control, cell-based, fluorescence, Alamar Blue, secondary assay (AID 2327); format: functional;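 also: NIH-3T3 mouse fibroblasts cultured with fluconazole at 8 µg/mL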
# [6] = C. albicans growth with fluconazole, confirmation, fluorescence, retest (AID 2467); format: functional, cell-based
# BJ [7] = assay: cytotoxicity toward BJ-TERT fibroblasts, dose response, cell-based, RAS-independent, luminescence (AID 1933); format: functional; conditions: Homo sapiens
# BJ [8] = assay: cytotoxicity toward BJ-TERT-LT-ST fibroblasts, dose response, cell-based, RAS-independent, luminescence (AID 1935); format: functional; conditions: Homo sapiens;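 also: BJ fibroblasts immortalized with TERT plus LT and ST oncogenes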
# [9] = cytotoxicity toward DRD oncogenic fibroblasts, dose response, cell-based, non-viral oncogenic, luminescence (AID 1934); format: functional; conditions: Homo sapiens
# BJ [10] = assay: cells; format: functional, cell-based; conditions: Homo sapiens
# [11] = inhibitors of intracellular T. cruzi replication, confirmation, NIH3T3 host cells, beta-gal luminescence (AID 2044); format: functional, cell-based;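 also: intracellular parasites grown in NIH/3T3 mouse fibroblasts as host cells; luminescent beta-galactosidase reporter signal from transgenic T. cruzi replicating inside host cells; inhibitors lower the luminescence signal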
# [12] = cytotoxicity toward NIH3T3 fibroblasts, dose response, counter-screen, cell-based, ATP luminescence, mouse fibroblasts (AID 2010); format: functional;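 also: cells exposed to compound for about 90 hours before reading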
# Cytochrome P450 2C9 = Cytochrome P450 2C9 (Homo sapiens, UniProt P11712)
# Cytochrome P450 2C19 = Cytochrome P450 2C19 (Homo sapiens, UniProt P33261); assay: Cytochrome panel assay with activity outcomes. Panel member name: p450-cyp2c19 Compounds with AC50 equal or less than 10 uM are considered active; format: functional; conditions: read-out: AC50
# [13] = Luminescence Cell-Based Dose Response HTS to Identify Activators of Luciferase Translation or Activity in H4 […] Cells. [Related pubchem assays: 1829 (Project Summary), 1814 (Primary HTS)]; format: functional
# Streptokinase A = biological target: T2, Streptokinase A (Streptococcus pyogenes serotype M1, UniProt P10520); assay: S. pyogenes streptokinase expression inhibitors, potency, dose response, plasminogen activation absorbance, OD405 (AID 1914); format: functional, Streptococcus pyogenes M1 GAS;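 also: secreted streptokinase activity via plasminogen activation per viability signal from cell pellet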
# T2 sequence (P10520 whole entry): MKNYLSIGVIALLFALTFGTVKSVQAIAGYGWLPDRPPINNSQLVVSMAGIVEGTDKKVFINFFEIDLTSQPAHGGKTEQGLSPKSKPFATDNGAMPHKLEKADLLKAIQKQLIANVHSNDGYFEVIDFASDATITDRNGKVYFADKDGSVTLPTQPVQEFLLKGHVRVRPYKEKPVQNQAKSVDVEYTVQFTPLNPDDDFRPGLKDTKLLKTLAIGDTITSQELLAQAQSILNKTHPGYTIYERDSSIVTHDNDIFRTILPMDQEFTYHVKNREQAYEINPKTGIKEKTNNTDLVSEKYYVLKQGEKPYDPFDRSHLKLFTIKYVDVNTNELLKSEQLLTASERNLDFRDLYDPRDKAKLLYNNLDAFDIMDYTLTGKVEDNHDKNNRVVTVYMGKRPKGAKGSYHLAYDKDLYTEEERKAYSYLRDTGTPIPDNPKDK
# Streptococcus = assay: Group A Streptococcus viability loss, dose response, counter-screen for streptokinase expression inhibitor project, luminescence, BacTiterGlo (AID 1915); format: functional, organism-based;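 also: potency for reduction of bacterial viability or growth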
# [14] = inhibitors of SNCA 5'UTR-driven reporter translation, confirmation, H4 neuroglioma cells, luminescence (AID 1988); format: functional, cell-based
# [15] = inhibitors of firefly luciferase expression or activity, dose response, H4 neuroglioma cells, luminescence (AID 1990); format: functional, cell-based
# [16] = Luminescence Cell-Based Dose Response HTS to Identify Inhibitors of 5'UTR Stem-Loop Driven Prion Protein mRNA Translation in H4 Neuroglioblastoma Cells. [Related pubchem assays: 1827 (Project Summary), 1813 (Primary HTS)]; format: functional
# [17] = tested on: Streptococcus sp. 'group A'; assay: growth inhibition of control SK(-) GAS strain, dose response, counter-screen for streptokinase expression inhibitor project, luminescence, kanamycin, BacTiterGlo, confirmation (AID 1900); format: functional, organism-based
# Cytochrome P450 3A4, sequence (P08684 whole entry): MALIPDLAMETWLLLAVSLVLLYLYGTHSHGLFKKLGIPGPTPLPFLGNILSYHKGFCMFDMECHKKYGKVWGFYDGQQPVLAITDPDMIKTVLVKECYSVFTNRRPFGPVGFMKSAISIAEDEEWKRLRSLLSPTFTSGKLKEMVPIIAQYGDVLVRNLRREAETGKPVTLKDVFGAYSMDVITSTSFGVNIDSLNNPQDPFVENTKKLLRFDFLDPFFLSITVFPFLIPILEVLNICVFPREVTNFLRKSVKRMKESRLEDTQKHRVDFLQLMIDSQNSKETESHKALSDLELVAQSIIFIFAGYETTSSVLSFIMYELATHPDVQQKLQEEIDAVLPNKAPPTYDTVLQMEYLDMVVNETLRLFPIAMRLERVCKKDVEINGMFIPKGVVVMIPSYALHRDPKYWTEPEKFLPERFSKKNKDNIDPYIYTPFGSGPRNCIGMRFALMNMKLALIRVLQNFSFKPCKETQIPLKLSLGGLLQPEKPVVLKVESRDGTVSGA
# Cytochrome P450 2D6, sequence (P10635 whole entry): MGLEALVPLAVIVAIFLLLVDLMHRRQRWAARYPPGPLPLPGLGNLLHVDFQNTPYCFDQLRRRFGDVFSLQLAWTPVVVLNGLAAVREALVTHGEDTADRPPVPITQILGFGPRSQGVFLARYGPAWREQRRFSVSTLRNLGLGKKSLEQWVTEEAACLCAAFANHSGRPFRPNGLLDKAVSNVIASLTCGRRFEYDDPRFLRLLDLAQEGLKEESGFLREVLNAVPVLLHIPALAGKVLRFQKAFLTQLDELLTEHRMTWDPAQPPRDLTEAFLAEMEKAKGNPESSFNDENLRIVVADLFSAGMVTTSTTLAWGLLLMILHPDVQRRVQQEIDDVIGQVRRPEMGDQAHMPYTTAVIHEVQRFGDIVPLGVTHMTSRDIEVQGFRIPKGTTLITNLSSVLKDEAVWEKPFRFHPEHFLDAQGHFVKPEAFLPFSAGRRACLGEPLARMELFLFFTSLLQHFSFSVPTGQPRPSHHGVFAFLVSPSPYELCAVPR
# Luciferin 4-monooxygenase, sequence (P08659 whole entry): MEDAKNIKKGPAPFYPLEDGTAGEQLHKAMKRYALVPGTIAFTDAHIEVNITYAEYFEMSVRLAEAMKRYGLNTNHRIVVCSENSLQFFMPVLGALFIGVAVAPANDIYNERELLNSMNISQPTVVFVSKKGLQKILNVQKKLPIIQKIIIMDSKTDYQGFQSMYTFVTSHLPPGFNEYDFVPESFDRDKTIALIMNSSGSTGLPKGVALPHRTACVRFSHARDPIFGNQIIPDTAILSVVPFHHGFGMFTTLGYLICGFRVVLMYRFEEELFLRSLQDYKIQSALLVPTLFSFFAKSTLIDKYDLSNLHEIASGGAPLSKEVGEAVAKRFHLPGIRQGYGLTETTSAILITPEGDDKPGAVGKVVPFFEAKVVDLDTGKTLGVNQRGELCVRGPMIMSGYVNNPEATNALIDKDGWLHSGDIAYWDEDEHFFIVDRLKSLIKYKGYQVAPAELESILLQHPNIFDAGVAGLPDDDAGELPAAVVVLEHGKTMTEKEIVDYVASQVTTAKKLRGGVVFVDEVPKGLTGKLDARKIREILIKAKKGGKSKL
# Cytochrome P450 2C9, sequence (P11712 whole entry): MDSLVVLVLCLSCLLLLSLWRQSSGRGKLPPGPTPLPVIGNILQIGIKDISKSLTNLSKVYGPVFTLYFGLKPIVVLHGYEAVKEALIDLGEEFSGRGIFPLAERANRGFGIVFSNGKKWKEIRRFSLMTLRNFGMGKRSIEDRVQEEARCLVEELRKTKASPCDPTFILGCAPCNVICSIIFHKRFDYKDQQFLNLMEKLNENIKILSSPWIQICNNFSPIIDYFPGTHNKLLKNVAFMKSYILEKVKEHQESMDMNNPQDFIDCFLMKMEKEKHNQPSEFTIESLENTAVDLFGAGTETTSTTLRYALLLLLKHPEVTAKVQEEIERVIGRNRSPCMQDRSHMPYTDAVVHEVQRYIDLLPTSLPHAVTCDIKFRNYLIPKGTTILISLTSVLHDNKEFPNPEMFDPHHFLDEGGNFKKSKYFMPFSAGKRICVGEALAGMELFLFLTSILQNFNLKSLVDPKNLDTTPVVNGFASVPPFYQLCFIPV
# Cytochrome P450 2C19, sequence (P33261 whole entry): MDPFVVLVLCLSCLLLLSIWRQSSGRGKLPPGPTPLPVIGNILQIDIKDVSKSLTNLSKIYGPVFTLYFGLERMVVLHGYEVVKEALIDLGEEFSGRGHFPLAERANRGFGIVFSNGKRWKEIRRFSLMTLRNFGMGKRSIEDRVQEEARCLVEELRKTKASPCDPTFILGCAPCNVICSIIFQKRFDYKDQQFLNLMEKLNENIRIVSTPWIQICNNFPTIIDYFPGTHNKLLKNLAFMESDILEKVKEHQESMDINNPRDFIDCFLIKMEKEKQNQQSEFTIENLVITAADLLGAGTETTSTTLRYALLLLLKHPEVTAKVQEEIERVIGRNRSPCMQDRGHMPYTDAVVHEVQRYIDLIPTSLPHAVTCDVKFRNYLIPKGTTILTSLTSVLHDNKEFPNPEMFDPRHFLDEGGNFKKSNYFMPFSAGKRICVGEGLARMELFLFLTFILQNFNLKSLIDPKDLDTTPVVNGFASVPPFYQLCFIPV
compound,measurement,setting,value
"Cc1c2oc3c(C)ccc(C(=O)N[C@@H]4C(=O)N[C@H](C(C)C)C(=O)N5CCC[C@H]5C(=O)N(C)CC(=O)N(C)[C@@H](C(C)C)C(=O)O[C@H]4C)c3nc-2c(C(=O)N[C@@H]2C(=O)N[C@H](C(C)C)C(=O)N3CCC[C@H]3C(=O)N(C)CC(=O)N(C)[C@@H](C(C)C)C(=O)O[C@H]2C)c(N)c1=O (I: [aThr][dV]P[Sar][NMeV] / II: [aThr][dV]P[Sar][NMeV]; ester I:1-I:C, II:1-II:C; linker I:N-II:N via Actinocin(1to9))",GI50,P388/ADR,0.00442 µM (active)
same,GI50,P388,0.00025 µM (active)
same,GI50,SN12K1,0.000337 µM (active)
OCC1OC(n2cnc3c(NC4CCCC4)ncnc32)C(O)C1O (stereo not given),EC50,[1],> 112 µM (not active)
same,EC50,[2],1.09 µM (active)
COc1ccc(C(O)c2nc3ccccc3n2C)cc1OC (stereo not given),AC50,[3],3.4 µM (active)
Cn1nnnc1Sc1ncnc2scc(-c3cccs3)c12,AC50,[4],7 µM (active)
CCCCCCN1C=CC(=C/C=C(\C#N)C(=O)OCC)C=C1,AC50,Cytochrome P450 3A4,15.8 µM (inconclusive)
same,AC50,Cytochrome P450 2D6,14.1 µM (inconclusive)
COC(=O)[C@H]1C[C@@H]1[C@H](NC(=O)OCc1ccccc1)c1ccccc1,AC50,Cytochrome P450 3A4,25.1 µM (inconclusive)
CCn1c(O)c(N=NC(=O)c2ccc(CSc3nncn3C)cc2)c2ccccc21,EC50,[1],> 112 µM (not active)
same,EC50,[2],> 112 µM (not active)
Cc1noc(C)c1C(=O)N1CCC2(CCCN(Cc3ccccc3)C2)CC1,AC50,Cytochrome P450 3A4,25.1 µM (inconclusive)
O=C(COc1ccc(C(=O)c2ccccc2)cc1)NC1CCCCC1,EC50,[1],> 112 µM (not active)
same,EC50,[2],> 112 µM (not active)
O=C(/C=C/c1ccccc1)NCC1(c2ccccc2)CCOCC1,EC50,[1],> 112 µM (not active)
same,EC50,[2],> 112 µM (not active)
Cc1ccc(-n2nnnc2SCn2nnc3ccccc3c2=O)c(C)c1,AC50,[3],30.1 µM (active)
C/C(=N\NC(=O)C1CCCC1)c1ccc(Cl)c(Cl)c1,EC50,[5],> 150 µM (inactive)
same,EC50,[6],> 38 µM (not active)
O=C(N/N=C/c1ccco1)c1cc(-c2ccncc2)nc2ccccc12,EC50,BJ [7],15.2 µM (active)
same,EC50,BJ [8],> 75 µM (not active)
same,EC50,[9],23.3 µM (active)
same,EC50,BJ [10],60.7 µM (active)
CCC(CC)C(=O)Nc1ccc(C)c(O)c1,AC50,Cytochrome P450 3A4,4.47 µM (inconclusive)
Cc1ccc(C(=O)/C=C/c2c[nH]c3ccccc23)cc1,AC50,Cytochrome P450 3A4,25.1 µM (inconclusive)
same,AC50,Cytochrome P450 2D6,22.4 µM (inconclusive)
O=C(c1ccccc1)c1ccc(NCCCn2ccnc2)c([N+](=O)[O-])c1,EC50,[11],1.8 µM (active)
same,EC50,BJ [7],> 150 µM (not active)
same,EC50,BJ [8],> 150 µM (inconclusive)
same,EC50,[9],147 µM (active)
same,EC50,[12],> 60 µM (not active)
same,EC50,BJ [10],> 150 µM (not active)
CN(NC(=O)c1ccccc1)c1nc2ccccc2nc1C(F)(F)F,EC50,BJ [7],18.4 µM (active)
same,EC50,BJ [8],17.3 µM (active)
same,EC50,[9],16.5 µM (active)
same,EC50,BJ [10],26.9 µM (active)
CC(=O)c1ncnn1CC(=O)c1ccc(Cl)cc1Cl,EC50,[5],21.9 µM (inconclusive)
same,EC50,[6],1.37 µM (active)
Cn1c(=O)c(C(=O)NCCc2ccccc2)c(O)c2ccccc21,EC50,[5],> 150 µM (inactive)
same,EC50,[6],> 38 µM (not active)
CC(C)CN1CC[C@@]2(CCCN(C(=O)c3cnccn3)C2)C1,AC50,Cytochrome P450 3A4,15.8 µM (inconclusive)
COC(=O)N1CCC[C@@]2(CCN(C(=O)Nc3ccc(OC)cc3)C2)C1,AC50,Cytochrome P450 2C9,20 µM (inconclusive)
same,AC50,Cytochrome P450 3A4,10 µM (inconclusive)
CO[C@@H]1/C=C\CC(=O)N[C@@H](C)C(=O)OC[C@H](NS(=O)(=O)c2ccc(C)cc2)[C@H](C)/C=C\CC(=O)OC[C@H]1C,AC50,Cytochrome P450 3A4,3.98 µM (inconclusive)
C[C@@H]1CCCN(CP(=O)(c2ccccc2)c2ccccc2)C1,AC50,Cytochrome P450 3A4,3.98 µM (inconclusive)
same,AC50,Cytochrome P450 2C19,0.126 µM (inconclusive)
CCOc1ccc(OCc2ccc(C(=O)NCc3cccnc3)o2)cc1,EC50,[1],> 112 µM (not active)
same,EC50,[2],> 112 µM (not active)
same,AC50,Cytochrome P450 2D6,1.26 µM (inconclusive)
O=C(c1ccncc1)N1CCC[C@@]2(CCN(c3ncccn3)C2)C1,AC50,Cytochrome P450 2C9,20 µM (inconclusive)
same,AC50,Cytochrome P450 3A4,15.8 µM (inconclusive)
same,AC50,Cytochrome P450 2C19,25.1 µM (inconclusive)
CCOC(=O)Cn1c(=O)n(Cc2ccco2)c(=O)c2ccc(C(=O)NC3CCCC3)cc21,EC50,[1],> 112 µM (not active)
same,EC50,[2],13.8 µM (active)
CCC(=O)Nc1cccc(-c2nnc(SCC(=O)c3ccccc3)n2C)c1,EC50,[13],47.5 µM (active)
C[C@H](NC[C@H](O)CP(=O)(O)CC1CCCCC1)c1ccc(Cl)c(Cl)c1,AC50,Cytochrome P450 3A4,31.6 µM (inconclusive)
CCCC(O)(CCC)C(=O)NNc1ccc(C)cc1,EC50,[5],> 160 µM (inconclusive)
same,EC50,[6],> 38 µM (not active)
CSc1nc(Oc2ccc3ccccc3c2)c2sccc2n1,EC50,Streptokinase A,39.1 µM (active)
same,EC50,Streptococcus,> 150 µM (not active)
same,EC50,BJ [7],12.5 µM (active)
same,EC50,[14],8.16 µM (active)
same,EC50,[15],12.9 µM (active)
same,EC50,BJ [8],13.6 µM (inconclusive)
same,EC50,[16],> 120 µM (not active)
same,EC50,[17],34.3 µM (active)
same,EC50,[9],12.8 µM (inconclusive)
same,EC50,BJ [10],52.3 µM (active)
Oc1c(Cl)cccc1/C=N/c1cc(C(F)(F)F)ccc1N1CCCC1,EC50,[1],> 112 µM (not active)
same,EC50,[2],> 112 µM (not active)
CCc1cc(=O)oc2cc(C)cc(OCC(=O)NCc3cccnc3)c12,EC50,[1],> 112 µM (not active)
same,EC50,[2],> 112 µM (not active)
CC(C)c1ccc(C(=O)OC2CCOC2=O)cc1 (stereo not given),EC50,[1],> 112 µM (not active)
same,EC50,[2],> 112 µM (not active)
